Some test systems named below: OVCAR-8 ovarian; RPMI-8226 leukemia; UACC-62 melanoma; NCI/ADR-RES ovarian; HCT-116 colon; SK-OV-3 ovarian; 786-0 renal; CAKI-1 renal; A498 renal; HL-60(TB) leukemia.
What all share (test): inhibition of tumour cell growth, NCI panel, 48 h

SMILES strings stand for the structures.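 Compound exposure: 48 hours, 5 concentrations, 96-well plates. At the GI50, growth is halved. TGI marks complete inhibition of growth.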 A value given as a limit tells only on which side of the number the result lay.

The record followed here is PubChem BioAssay (NCI).

Take `O=C(Nc1ccc(Cl)c(C(F)(F)F)c1)C(=O)c1c(O)c2ccccc2oc1=O`: the TGI in the assay with OVCAR-8 ovarian, with RPMI-8226 leukemia, with UACC-62 melanoma, with NCI/ADR-RES ovarian, with HCT-116 colon and in the assay with SK-OV-3 ovarian was greater than 100 µM in each case. The TGI in the assay with 786-0 renal, in the assay with CAKI-1 renal and with A498 renal was greater than 100 µM in each case.
`CCN(CC)C(=O)CCCCCn1c2ccccc2c2c3c(c4c5ccccc5[nH]c4c21)C(=O)N(O)C3=O`: the GI50 with OVCAR-8 ovarian was 4.1 µM; with HL-60(TB) leukemia it was 2.8 µM; with RPMI-8226 leukemia, 3.06 µM; in the assay on UACC-62 melanoma, 4.1 µM; in the assay on NCI/ADR-RES ovarian it was 3.4 µM; in the assay on HCT-116 colon, 3.75 µM. The figures for the GI50 in the assay with SK-OV-3 ovarian, with 786-0 renal and in the assay with A498 renal were 22.2 µM, 2.12 µM and 2.86 µM, respectively. For the same compound, the TGI was 28.3 µM with OVCAR-8 ovarian; 7.63 µM in the assay with HL-60(TB) leukemia; 11.3 µM in the assay on RPMI-8226 leukemia; 20.1 µM in the assay on UACC-62 melanoma; greater than 100 µM in the assay on NCI/ADR-RES ovarian; 28.1 µM in the assay with HCT-116 colon. Besides, the TGI in the assay on SK-OV-3 ovarian is 92.1 µM; with 786-0 renal, 5.04 µM; with A498 renal, 20.3 µM.
With `CN(C)CCS(=O)(=O)Nc1cc(-c2ccc3ncnc(Nc4ccc(F)c(Cl)c4)c3c2)cnc1Cl`, the GI50 with OVCAR-8 ovarian is 1.77 µM; in the assay on HL-60(TB) leukemia it was 1.33 µM; with RPMI-8226 leukemia it was 1.04 µM; in the assay on UACC-62 melanoma, 0.938 µM; with NCI/ADR-RES ovarian it was 3.32 µM; with HCT-116 colon, 0.829 µM. Moreover, the GI50 in the assay with SK-OV-3 ovarian was 0.261 µM; in the assay with 786-0 renal, 1.34 µM; with A498 renal, 0.336 µM. The TGI in the assay on OVCAR-8 ovarian is greater than 51.7 µM; in the assay with HL-60(TB) leukemia, 9.15 µM; in the assay on RPMI-8226 leukemia, 4.52 µM; in the assay with UACC-62 melanoma, 3.4 µM; with NCI/ADR-RES ovarian, greater than 100 µM; in the assay with HCT-116 colon, 6.43 µM. Further, the TGI in the assay on SK-OV-3 ovarian is 1.64 µM; in the assay with 786-0 renal it was greater than 100 µM; in the assay on A498 renal it was 1.17 µM.
For `COC(=O)c1ccc2c(c1)C(=O)c1c-2n(CCCCl)c(=O)c2cc(OC)c(OC)cc12`, the GI50 in the assay on OVCAR-8 ovarian was greater than 100 µM; with RPMI-8226 leukemia, 75.2 µM; in the assay with UACC-62 melanoma it was greater than 100 µM; in the assay on NCI/ADR-RES ovarian it was greater than 100 µM; with HCT-116 colon, greater than 100 µM; in the assay on SK-OV-3 ovarian, 44.1 µM. Moreover, the GI50 in the assay on 786-0 renal and in the assay with CAKI-1 renal was greater than 100 µM in each case. For the same compound, the TGI with OVCAR-8 ovarian, with RPMI-8226 leukemia, in the assay with UACC-62 melanoma, in the assay with NCI/ADR-RES ovarian, with HCT-116 colon and in the assay with SK-OV-3 ovarian was greater than 100 µM throughout. For the same compound, the TGI in the assay on 786-0 renal and with CAKI-1 renal was greater than 100 µM in each case.
For `O=C1c2ccccc2-c2c1c1ccc([N+](=O)[O-])cc1c(=O)n2CCCCl`, the GI50 with OVCAR-8 ovarian is 72.1 µM; with HL-60(TB) leukemia it was 52.4 µM; in the assay with RPMI-8226 leukemia it was 1.36 µM; in the assay on UACC-62 melanoma it was 20.3 µM; in the assay with NCI/ADR-RES ovarian, 24.1 µM; with HCT-116 colon, 3.62 µM. The GI50 with SK-OV-3 ovarian was 63.4 µM; with 786-0 renal, greater than 100 µM; in the assay on CAKI-1 renal, 2.45 µM. Besides, the TGI was greater than 100 µM in the assay on OVCAR-8 ovarian; greater than 100 µM in the assay with HL-60(TB) leukemia; 33.3 µM in the assay on RPMI-8226 leukemia; greater than 100 µM with UACC-62 melanoma; greater than 100 µM in the assay on NCI/ADR-RES ovarian; greater than 100 µM with HCT-116 colon. For the same compound, the TGI with SK-OV-3 ovarian, in the assay on 786-0 renal and with CAKI-1 renal was greater than 100 µM throughout.
Take `O=C(O)Cn1ccc(=O)c2c([N+](=O)[O-])cccc21`: the TGI in the assay with OVCAR-8 ovarian, in the assay on HL-60(TB) leukemia, in the assay with UACC-62 melanoma, in the assay with NCI/ADR-RES ovarian, in the assay with HCT-116 colon and with SK-OV-3 ovarian was greater than 100 µM in each case. In addition, the TGI with 786-0 renal, in the assay on CAKI-1 renal and in the assay with A498 renal was greater than 100 µM throughout.
On to `COc1cc(OC)c(/C=C/C(=O)c2c(N)cc(OC)cc2OC)c(OC)c1`, for which the GI50 is 0.712 µM in the assay with OVCAR-8 ovarian; 0.3 µM in the assay on HL-60(TB) leukemia; 0.815 µM with RPMI-8226 leukemia; 0.379 µM with UACC-62 melanoma; 0.384 µM with HCT-116 colon; 0.767 µM in the assay on SK-OV-3 ovarian. The GI50 in the assay on 786-0 renal is 1.49 µM; in the assay on CAKI-1 renal, 0.38 µM; in the assay on A498 renal, 0.463 µM. Besides, the TGI in the assay on OVCAR-8 ovarian, in the assay on HL-60(TB) leukemia, in the assay with RPMI-8226 leukemia, in the assay with UACC-62 melanoma, with HCT-116 colon and in the assay with SK-OV-3 ovarian was greater than 100 µM each time. Further, the TGI is greater than 75 µM with 786-0 renal and greater than 100 µM with CAKI-1 renal.
On to `O=C(/C=C/c1cccc(Oc2ccc(Cl)cc2)c1)c1ccccc1`, for which the GI50 with OVCAR-8 ovarian was 26.9 µM; in the assay on HL-60(TB) leukemia, 23.4 µM; in the assay on RPMI-8226 leukemia it was 25.3 µM; with UACC-62 melanoma, 26.8 µM; with NCI/ADR-RES ovarian, 37.1 µM; in the assay on HCT-116 colon, 20.6 µM. Also, the figures for the GI50 in the assay with SK-OV-3 ovarian, in the assay on 786-0 renal and in the assay with A498 renal were 195 µM, 19.9 µM and 163 µM, respectively. Also, the TGI in the assay with OVCAR-8 ovarian was determined as 66.9 µM; with HL-60(TB) leukemia, 58.4 µM; with RPMI-8226 leukemia, 61 µM; in the assay on UACC-62 melanoma, 77 µM; in the assay on NCI/ADR-RES ovarian it was 232 µM; in the assay with HCT-116 colon it was 41.7 µM. In addition, the TGI in the assay with SK-OV-3 ovarian is 381 µM; in the assay with 786-0 renal it was 43.6 µM; in the assay with A498 renal, 312 µM.
As to `O=c1c2cccc3cccc(c4n1CCCN=4)c32`, the TGI in the assay with OVCAR-8 ovarian, with HL-60(TB) leukemia, in the assay with RPMI-8226 leukemia, in the assay with UACC-62 melanoma, in the assay on HCT-116 colon and in the assay on SK-OV-3 ovarian was greater than 100 µM throughout. For the same compound, the TGI in the assay on 786-0 renal, in the assay with CAKI-1 renal and with A498 renal was greater than 100 µM each time.
